The text below walks through data of patent EP0903341A1, “"Novel ortho-mercaptoaniline compounds"” (Akzo Nobel N.V., priority 1997, dated 1999).

For experiment [1], the system named is Entamoeba histolytica. The experiment in a line: Anti-amoebic action in vivo in rats infected in the caecum (cure index). As to conditions: for cure index: five days.
Experiment [2] has as its system Entamoeba histolytica 200: NIH or E-32. Put plainly: Anti-amoebic action in vitro (axenic culture, minimum inhibitory concentration). As to conditions: axenic culture in TYI-S-33 medium, 48 h incubation with compound at 37°C, amoebae counted by microscope, read-out: minimum concentration active in killing the amoeba. It is filed as cell-based. How it is done:
Axenic Entamoeba histolytica cultures were grown in glass, screw-capped tubes (16x100 mm) containing about 10 ml complete growth medium TYI-S-33. The tubes were inoculated with 0.5 ml of a 72 h old axenic culture of Entamoeba histolytica 200: NIH or E-32, obtained from an external supplier (Kothari Research Centre, Calcutta, India). After incubation for 24 h at 37°C compounds to be tested were added at desired concentrations. Incubation of the tubes was continued for an additional 48 h. The number of amoebae in the medium were counted by microscopic examination at 100x magnification. The complete growth medium TYI-S-33 medium was prepared by mixing aseptically 9 ml of a nutrient solution, 1 ml of animal serum, 0.3 ml of a vitamin mixture and 0.05 ml of a solution containing the antibiotics streptomycine and benzylpenicillin. The composition of TYI-S-33 medium and method of preparation is described in detail by Diamond (J Parasitology 54:1047-1056, 1968). Test compounds are tested at different concentrations, the highest is 100 µg/ml. Lower concentrations are tested in successive tests until the minimum inhibitory concentration is reached. The reference compounds tinidazole was active in killing the amoeba at a minimum concentration of 1.5 µg/ml. Compound B of this invention was active in killing the amoeba at a minimum concentration of 3.1 µg/ml.

Values after ≈ are worked out from the molar mass of the structure shown.

In the case of `COc1ccc(CCNCCC(=O)N(C)c2ccccc2SC)cc1OC` [Compound A, 3-[2-(3,4-dimethoxyphenyl)ethylamino]-N-methyl-N-[(2-methylthio)phenyl]-propionamide], the cure index is listed as 23 percentage of the control group in experiment [1] (Dose 9 mg/kg oral); 34 percentage of the control group in experiment [1] (Dose 18.8 mg/kg oral); 56 ±5 percentage of the control group in experiment [1] (Dose 37.5 mg/kg oral); 76 ±6 percentage of the control group in experiment [1] (Dose 75 mg/kg oral); 74 ± 10 percentage of the control group in experiment [1] (Dose 100 mg/kg oral). Further, the “increase in cure index (in words)” value in experiment [1] (doses of 9 or 20 mg/kg per day, oral) is on record as “No increase in cure index”.

For `COc1ccc(CSc2ccccc2N(C)CCCN(C)CCc2ccc(OC)c(OC)c2)cc1` [Compound B, N-[2-(3,4-dimethoxyphenyl)ethyl]-N-methyl-N'-[2-(4-methoxyphenyl)methylthiophenyl]-N'-methyl-1,3-diaminopropane], the MIC in experiment [2] is 3.1 µg/mL (≈ 6.27 µM).

Take `CCS(=O)(=O)CCn1c([N+](=O)[O-])cnc1C` [Tinidazole, reference compound]: the MIC in experiment [2] was 1.5 µg/mL (≈ 6.07 µM). Also, the cure index is given as 51 ± 8 percentage of the control group in experiment [1] (Dose 75 mg/kg oral), 66 ± 5 percentage of the control group in experiment [1] (Dose 150 mg/kg oral) and 81 ± 5 percentage of the control group in experiment [1] (Dose 200 mg/kg oral).
